These results are taken from patent US20260272878A1, “ADAR1 INHIBITORS AND USES THEREOF” (THE WISTAR INSTITUTE OF ANATOMY AND BIOLOGY, priority 2023, published 2026).

Experiment [1] concerns the target T1, ADAR2 (Homo sapiens, UniProt P78563).
T1 sequence (P78563 1-741): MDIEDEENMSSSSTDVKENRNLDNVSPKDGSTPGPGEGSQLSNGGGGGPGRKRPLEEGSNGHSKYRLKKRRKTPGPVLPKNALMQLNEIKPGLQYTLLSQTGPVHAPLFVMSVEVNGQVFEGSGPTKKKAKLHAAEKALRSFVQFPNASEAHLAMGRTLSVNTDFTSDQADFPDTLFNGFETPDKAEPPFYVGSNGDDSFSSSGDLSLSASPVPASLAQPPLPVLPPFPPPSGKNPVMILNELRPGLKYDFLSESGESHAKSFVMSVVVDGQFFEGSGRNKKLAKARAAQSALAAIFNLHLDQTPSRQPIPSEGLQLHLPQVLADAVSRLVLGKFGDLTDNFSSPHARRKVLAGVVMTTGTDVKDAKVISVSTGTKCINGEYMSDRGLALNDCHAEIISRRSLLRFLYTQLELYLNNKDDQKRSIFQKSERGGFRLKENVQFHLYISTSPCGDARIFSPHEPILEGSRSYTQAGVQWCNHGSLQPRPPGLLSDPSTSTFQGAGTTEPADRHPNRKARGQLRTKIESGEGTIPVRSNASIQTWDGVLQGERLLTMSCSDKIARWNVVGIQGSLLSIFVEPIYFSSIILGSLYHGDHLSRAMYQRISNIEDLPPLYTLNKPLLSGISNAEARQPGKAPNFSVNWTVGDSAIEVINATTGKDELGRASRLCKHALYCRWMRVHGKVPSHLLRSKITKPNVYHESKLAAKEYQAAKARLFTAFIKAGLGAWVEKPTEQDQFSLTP
Briefly: In vitro editing assay, ADAR2. Type of experiment: biochemical. The settings on record: ADAR2 mediated A-to-I editing in vitro.

Experiment [2] deals with T2, ADAR1p110-WT (Homo sapiens, UniProt P55265).
T2 construct: made in house; host or cells: Sf9 cells (baculovirus)
T2 sequence (P55265 1-931 isoform P55265-5): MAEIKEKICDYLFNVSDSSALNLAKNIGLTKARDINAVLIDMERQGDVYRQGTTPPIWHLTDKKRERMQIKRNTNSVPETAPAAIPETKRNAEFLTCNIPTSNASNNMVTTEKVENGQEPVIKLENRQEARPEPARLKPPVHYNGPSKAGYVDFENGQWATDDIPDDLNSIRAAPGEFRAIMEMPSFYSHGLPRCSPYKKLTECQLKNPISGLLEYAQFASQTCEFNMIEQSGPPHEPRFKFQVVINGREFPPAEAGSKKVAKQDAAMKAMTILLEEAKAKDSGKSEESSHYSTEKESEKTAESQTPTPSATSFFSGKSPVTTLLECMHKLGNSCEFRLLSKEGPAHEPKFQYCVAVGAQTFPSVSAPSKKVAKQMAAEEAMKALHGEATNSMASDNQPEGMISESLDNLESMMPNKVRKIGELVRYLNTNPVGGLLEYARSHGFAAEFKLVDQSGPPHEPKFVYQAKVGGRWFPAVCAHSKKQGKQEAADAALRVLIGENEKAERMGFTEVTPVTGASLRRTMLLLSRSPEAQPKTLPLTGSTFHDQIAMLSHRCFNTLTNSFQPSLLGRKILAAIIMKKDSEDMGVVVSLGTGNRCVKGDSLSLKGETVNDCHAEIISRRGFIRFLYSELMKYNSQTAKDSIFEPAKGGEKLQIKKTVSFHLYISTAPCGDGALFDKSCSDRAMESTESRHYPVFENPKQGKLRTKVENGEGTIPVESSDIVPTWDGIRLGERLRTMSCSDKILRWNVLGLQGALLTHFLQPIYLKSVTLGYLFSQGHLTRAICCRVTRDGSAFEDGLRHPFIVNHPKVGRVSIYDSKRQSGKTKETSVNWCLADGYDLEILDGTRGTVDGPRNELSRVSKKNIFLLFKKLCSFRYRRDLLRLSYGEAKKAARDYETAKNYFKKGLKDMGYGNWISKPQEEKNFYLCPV
Nature of the experiment: Biacore SPR binding to ADAR1p110-WT. An excerpt: FIGS. 5A-5D show Biacore SPR analysis for binding of ADAR1i to ADAR1p110. (FIG. 5A) SPR analysis for binding kinetics of 8 compounds to ADAR1p110-WT. ADAR1 inhibition positive (ADAR1i-13, ADAR1i-120, ADAR1i-124) and negative compounds. (FIG. 5B, FIG. 5C) […] of SPR analysis for binding of ADAR1i-13 and ADAR1i-124 to ADAR1p110-WT and ADAR1p110-E912A as well as negative control proteins, GAPDH and HuR, are shown. […] ADAR1-E912, equivalent of ADAR2 E396, is located in the catalytic center.
No complete 3-D structure of ADAR1 is currently available. […] The glutamate E912 and E396 in ADAR1 and ADAR2, respectively, plays an important proton transfer function during hydrolytic deamination reaction (42, 43).

Experiment [3] has as its system HeLa non-ALT cancer cells. Briefly: Cancer cell killing / viability (Apo Tox-Glo), HeLa. It is filed as cell-based, human. As to conditions: for Killing of HeLa cells: result in words. As for the experimental part:
FIGS. 8A-8C show analysis of ADAR1i-124 effects in cancer cells. […] Viability was examined using the Apo Tox-Glo assay system. Control, 0.3% DMSO. Data: mean±SD (n=3). Significant differences identified by two-tailed Student's t-tests: *P<0.05, n.s., not significant. (FIG. 8B) Western blotting analysis of HeLa cells treated with ADAR1i-124 (10 μM).
FIGS. 9A-9C show dose-dependent killing of cancer cells and activation of IFN signaling. […] YUMM1.7 (FIG. 9B) and HGS2 cells (FIG. 9C) were treated with ADAR1i-124 at 10 μM (12 hrs). RNA samples were analyzed by qRT-PCR to monitor ISG expression levels. Data: mean±SD (n=3). Significant differences were identified by two-tailed Student's t-tests: ***P<0.001.
Dose-dependent selective killing of telomerase reactivated cancer cells was determined (FIG. 9A).

“Also recorded” adds a separate entry of the source.

On to `N#Cc1ccc(NC(=O)c2sc3ccccc3c2Cl)cc1` [ADAR1i-13, 3-chloro-N-(4-cyanophenyl)-1-benzothiophene-2-carboxamide], for which the ADAR2 inhibitory activity entry in experiment [1] is recorded as “No ADAR2 inhibitory activity was detected; also recorded: did not inhibit ADAR2 mediated A-to-I editing in vitro”. Further, in experiment [2], the “Binding to ADAR1p110-WT” value is recorded as “direct binding”. Besides, in experiment [3], the “Killing of HeLa cells” value is “killed selectively”.

For the molecule `N#Cc1ccccc1NC(=O)c1sc2ccccc2c1Cl` [ADAR1i-120], the ADAR2 inhibitory activity entry in experiment [1] is recorded as “No ADAR2 inhibitory activity was detected”. Further, the “Binding to ADAR1p110-WT” value in experiment [2] is given as “direct binding”. Further, the “Killing of HeLa cells” value in experiment [3] was “killed selectively”.

Turning to `N#Cc1ccc(NC(=O)c2c(Cl)c3ccccc3n2CO)cc1` [ADAR1i-124], in experiment [1], the ADAR2 inhibitory activity result is “No ADAR2 inhibitory activity was detected; also recorded: did not inhibit ADAR2 mediated A-to-I editing in vitro; also recorded: No ADAR2 inhibition detected”. The “Binding to ADAR1p110-WT” value in experiment [2] is on record as “direct binding”. Besides, the “Viability of HeLa cells” value in experiment [3] (10 μM, Apo Tox-Glo, control 0.3% DMSO) is given as “selectively reduced viability”. For the same molecule, in experiment [3] (Homo sapiens, HeLa, read-out: IC50 for selective killing of HeLa cells), the half-inhibitory concentration (IC50) (usually the point on the concentration scale where inhibition reaches its midpoint) is approximately 400 nM. For the same molecule, in experiment [3], the “Killing of HeLa cells” value is listed as “killed selectively; also recorded: dose-dependently killed”.
